Experimental data as given in US20230303581A1, “ORALLY BIOAVAILABLE, BRAIN-PENETRANT COMPOUND WITH SELECTIVITY FOR THE CANNABINOID TYPE 2 RECEPTOR WITH POTENTIAL USE TOWARDS VISCERAL PAIN MANAGEMENT AND NEURODEGENERATIVE DISORDERS” (University of Mississippi, priority 2022, published 2023).
Where “and” joins values, the source holds several entries; their conditions need not be identical. Identical values can stand only once. Entries after “also recorded” stand apart in the source; their conditions may differ. Like-named read-outs stand apart in the source and are kept apart here. One block for each molecule: values may come before it.

How the values were obtained:
human CB1 receptors = human CB1 receptors (Homo sapiens (Human), UniProt P21554); experiment: Cannabinoid receptor binding (displacement) assay, CB1; details: 10 μM compound
Procedure: (§1) The affinities of the compounds for CB1 and CB2 receptors were examined using displacement assays, as previously described. Briefly, cell membranes from CHO cells expressing human CB1 or human CB2 receptors were isolated using differential centrifugation. Test compounds reconstituted in DMSO and were incubated with the isolated membrane in binding buffer (50 mM Tris-HCl, 1 mM EDTA, 3 mM MgCl2, 5 mg/mL BSA, pH 7.4) along with 2.5 nM [^3H]CP-55,940. Total binding was assessed in the presence of equal concentration of DMSO, while non-specific binding was determined in the presence of 10 μM CP-55,940, and background binding was determined in wells lacking membrane. Following incubation at 30° C. for 60 min, the binding reactions were terminated by vacuum filtration through Whatman GF/C filters. The filters were then washed twice with ice-cold buffer (50 mM Tris-HCl, 1 mg/mL BSA). Liquid scintillation cocktail was added to each well and the total tritiated counts per minute were analyzed using a TopCount scintillation counter. Background counts were subtracted from all wells and the percent displacement from total binding was calculated.
(§2) The compounds were initially screened at 10 μM concentrations. If they produced at least ±30% displacement of the radioligand, then full competition curves were constructed. Ki values were calculated using GraphPad Prism (San Diego, CA, USA) and Kd values determined using a 1 site fit. All assays were run in technical and biological replicates so that the n=5-6. PK Evaluation in CD-1 Mice
(§3) The CB1/CB2 receptor binding activities of analogs 4a-4q were assessed via radioactivity-based competitive binding assays using [^3H]CP55,940, an extensively studied radioligand that is frequently used for cannabinoid assays. […] In preliminary screening, all 17 synthetic PBD compounds (4a-4q) were subjected to in vitro CB1 and CB2 binding assays at a single concentration of 10 μM. […] Therefore, the most promising ligands (4k and 4q) were selected for assessment in full competition curves against CB1 and CB2.

human CB2 receptors = human CB2 receptors (Homo sapiens (Human), UniProt P34972); experiment: Cannabinoid receptor binding (displacement) assay, CB2; details: for Displacement of [3H]CP-55,940 from CB2: 10 μM compound
Procedure: as §1, §2, §3

mice [1] = experiment: Conditioned place preference test; type: in vivo; details: FIG. 4
Text: Conditioned place preference testing is used to assess a compound's rewarding effects in order to gauge potential abuse liability. Mice are “conditioned” to associate distinctly lighted/colored/textured chambers with a rewarding drug (e.g., opioid) or no drug. If the mice sense a rewarding effect of the drug, they will prefer to occupy the chamber associated with that drug. FIG. 4 presents the results of a conditioned place preference test for 3 groups of mice (i.e., vehicle, oxycodone treated, and compound 4k treated).

[2] = PK evaluation in CD-1 mice (plasma and tissue concentrations); type: in vivo
Procedure: The primary stock solutions of 4k and phenacetin (internal standard, IS) were prepared in methanol at a concentration of 1.0 mg/mL. Working solutions of calibration standards and quality control (QC) samples were prepared by dilution with methanol and stored at −20° C. A working stock of the IS solution (20 ng/mL) was prepared in methanol and stored at −20° C.
Chromatography was performed on an Acquity™ UPLC system (Waters Corp, Milford, MA, USA) with an autosampler temperature at 10° C. Waters Acquity UPLC® HSS C18 column (3.0×50 mm, 1.8 μm particle size) was used for chromatographic separation with linear gradient elution consisting of (A) 90% acetonitrile and (B) 10% 0.2% formic acid in Milli-Q water as mobile phases. The flow rate was set at 0.30 mL/min, and the injection volume was 2 μL.
An Acquity Tandem Quadrupole Mass Detector (Xevo TQ-S; Waters Corp, Milford, MA, USA) in positive electrospray ionization mode was used for mass spectrometric detection. For collision-induced dissociation, argon was used as collision gas. The cone voltage and collision energy were set at 60 V and 34 V for 4k and 46 V and 26 V for the IS, respectively. Quantification was performed using the monitoring of multiple reaction monitoring (MRM) of following transitions: m/z 409.0/220.9 for 4k and m/z 180.0/92.7 for IS. Retention times of 4k and IS were 2.85 and 1.81 min, respectively.
A simple protein precipitation method was followed for extraction of 4k from mice plasma. To an aliquot of 50 μL of plasma or tissue (brain, liver, or kidney) samples, IS solution (5 μL of 20 ng/mL) was added and mixed for 15 s on a cyclomixer (Thermo Scientific, Indianapolis, IN, USA). After precipitation with 200 μL of acetonitrile, the mixture was vortexed for 2 min, followed by centrifugation for 10 min at 14,000 rpm on an accuSpin Micro 17R (Fisher Scientific, Suwanee, GA, USA) at 5° C. An aliquot of ˜150 μL of clear supernatant was transferred into vials and 2 μL was injected onto LC-MS/MS system for analysis.
Male CD-1 mice (N=48) were obtained from Envigo (St. Louis, MO, USA) and maintained on a 12:12 h reversed dark/light cycle (lights off at 07:00 h) with ad libitum access to food and water. Following a ˜4 h fast, animals were randomly assigned to one of two groups. Group I and II animals (n=24/group, weight range 25-30 g) received compound 4k (5 mg/kg) orally (in the form of a solution, prepared using 10% absolute alcohol, 10% cremophor, and 80% Milli-Q water) or intravenously (i.v., using solution formulation comprising 10% absolute alcohol, 10% cremophor, and 80% normal saline), respectively. At 0.5, 1, 2, 4, 8, and 24 h post administration, animals were euthanized, blood was collected in K2. EDTA-containing polypropylene tubes and, tissues were collected (brain, liver, and kidney). Plasma was harvested by centrifuging the blood using Eppendorf 5430R Centrifuge (Germany) at 5000 rpm for 5 min and stored frozen at −80° C. until analysis.
Brain, liver, and kidney tissues were homogenized in separate 15 mL round-bottom screw-capped vials in phosphate buffered saline (5 volumes of each tissue mass) with a homogenizer (Polytron®) and stored at −80° C. until analysis. Plasma or tissue homogenates (50 μL) were spiked with IS and processed as mentioned in sample preparation section.
Plasma and tissue concentration and time data of compound 4k were analyzed by a non-compartmental method using WinNonlin Version 5.3 (Pharsight Corporation, Mountain View, CA, USA).

[3] = Stability studies under physiological pH; type: physicochemical; details: 4k compared to 4q; data not reported
mice [4] = experiment: Acetic acid-induced writhing test; type: in vivo
Text: Acetic acid-induced writhing is widely used for assessing analgesic effects against inflammatory pain of peripheral origin.

[5] = male, CD-1, mouse, intravenous 5 mg/kg, brain
[6] = male, CD-1, mouse, intravenous 5 mg/kg, kidney
[7] = male, CD-1, mouse, intravenous 5 mg/kg, liver
[8] = male, CD-1, mouse, intravenous 5 mg/kg, plasma
[9] = male, CD-1, mouse, oral 5 mg/kg, brain
[10] = male, CD-1, mouse, oral 5 mg/kg, kidney
[11] = male, CD-1, mouse, oral 5 mg/kg, liver
[12] = male, CD-1, mouse, oral 5 mg/kg, plasma

human CB1 receptors, sequence (P21554 whole entry): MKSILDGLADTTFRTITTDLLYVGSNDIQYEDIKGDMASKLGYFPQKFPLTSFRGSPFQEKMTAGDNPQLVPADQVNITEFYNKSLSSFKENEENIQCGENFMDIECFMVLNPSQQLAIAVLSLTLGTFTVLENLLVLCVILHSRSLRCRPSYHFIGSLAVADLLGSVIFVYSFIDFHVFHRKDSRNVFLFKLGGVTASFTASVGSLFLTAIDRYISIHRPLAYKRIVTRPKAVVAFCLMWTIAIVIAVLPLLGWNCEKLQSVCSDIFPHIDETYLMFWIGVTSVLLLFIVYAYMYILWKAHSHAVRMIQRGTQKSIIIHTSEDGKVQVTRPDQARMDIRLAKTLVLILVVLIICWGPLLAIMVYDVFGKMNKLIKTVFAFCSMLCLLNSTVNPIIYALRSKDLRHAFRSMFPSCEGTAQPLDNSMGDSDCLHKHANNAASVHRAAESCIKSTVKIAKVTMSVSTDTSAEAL
human CB2 receptors, sequence (P34972 whole entry): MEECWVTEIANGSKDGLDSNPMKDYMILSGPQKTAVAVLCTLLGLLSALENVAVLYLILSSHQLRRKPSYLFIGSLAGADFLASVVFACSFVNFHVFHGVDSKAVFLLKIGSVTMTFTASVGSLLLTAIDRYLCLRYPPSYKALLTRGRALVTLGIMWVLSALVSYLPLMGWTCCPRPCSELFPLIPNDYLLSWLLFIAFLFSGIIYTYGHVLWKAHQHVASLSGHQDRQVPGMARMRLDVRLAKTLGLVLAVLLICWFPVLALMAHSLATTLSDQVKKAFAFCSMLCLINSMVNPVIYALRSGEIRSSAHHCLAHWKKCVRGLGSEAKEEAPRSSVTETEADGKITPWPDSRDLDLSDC

Molecule: Cn1ccnc1/C=N/N=C1/Nc2ccccc2C(=O)N2CCC[C@@H]12 [Compound 4b]
- Displacement of [3H]CP-55,940 from CB1 (human CB1 receptors): −13.99%
- Displacement of [3H]CP-55,940 from CB2 (human CB2 receptors): −14.48%

Molecule: O=C1c2ccccc2N/C(=N/N=C/c2sc(Cl)nc2Cl)[C@@H]2CCCN12 [Compound 4g]
- Displacement of [3H]CP-55,940 from CB1 (human CB1 receptors): 24.19%
- Displacement of [3H]CP-55,940 from CB2 (human CB2 receptors): 29.27%

Molecule: (S,E)-11-[(Benzo[b]thiophen-3-ylmethylene)hydrazono]-7-bromo-pyrrolo[2,1-c][1,4]Benzodiazepine [Compound 4j]
- Displacement of [3H]CP-55,940 from CB1 (human CB1 receptors): 66.81%
- Displacement of [3H]CP-55,940 from CB2 (human CB2 receptors): 65.24%

Molecule: O=C1c2ccccc2N/C(=N/N=C/c2ccc[nH]2)[C@@H]2CCCN12 [Compound 4a]
- Displacement of [3H]CP-55,940 from CB1 (human CB1 receptors): −3.09%
- Displacement of [3H]CP-55,940 from CB2 (human CB2 receptors): −12.50%

Molecule: Cc1c(/C=N/N=C2/Nc3ccccc3C(=O)N3CCC[C@@H]23)sc2ccccc12 [Compound 4l]
- Displacement of [3H]CP-55,940 from CB1 (human CB1 receptors): 77.17%
- Displacement of [3H]CP-55,940 from CB2 (human CB2 receptors): 51.73%

- AUC0-∞ ([2]; intravenous 5 mg/kg, brain): 5685 ng·h/g
- AUC0-∞ ([2]; intravenous 5 mg/kg, kidney): 13272 ng·h/g
- AUC0-∞ ([2]; intravenous 5 mg/kg, liver): 19991 ng·h/g
- clearance as share of hepatic blood flow in mice ([2]; intravenous 5 mg/kg, plasma): 26%
- clearance [2, 5]: 15.7 ± 2.31 mL/min/kg
- half-life [2, 5]: 392 ± 82.8 min
- clearance [2, 6]: 6.38 ± 0.49 mL/min/kg
- half-life [2, 6]: 612 ± 29.4 min
- clearance [2, 7]: 4.28 ± 0.38 mL/min/kg
- half-life [2, 7]: 556 ± 40.2 min
- Vd [2, 8]: 14.3 ± 3.11 L/kg
- clearance [2, 8]: 23.5 ± 5.35 mL/min/kg
- half-life [2, 8]: 415 ± 9 min
- Cmax ([2]; male, CD-1, mouse, intravenous 5 mg/kg, plasma, read-out: Cmax Or C0): 4340 ng/mL
- Tmax [2, 9]: 75 ± 26.4 min
- half-life [2, 9]: 1370 ± 224 min
- Cmax ([2]; male, CD-1, mouse, oral 5 mg/kg, brain, read-out: Cmax): 602 ± 44.8 ng/g
- bioavailability ([2]; male, CD-1, mouse, oral 5 mg/kg, brain, read-out: F (apparent oral bioavailability)): 43%
- Tmax [2, 10]: 45 ± 9 min
- half-life [2, 10]: 1000 ± 96.6 min
- Cmax ([2]; male, CD-1, mouse, oral 5 mg/kg, kidney, read-out: Cmax): 795 ± 22.6 ng/g
- bioavailability ([2]; male, CD-1, mouse, oral 5 mg/kg, kidney, read-out: F (apparent oral bioavailability)): 37 ± 3.78%
- Tmax [2, 11]: 45 ± 9 min
- half-life [2, 11]: 780 ± 58.2 min
- Cmax ([2]; male, CD-1, mouse, oral 5 mg/kg, liver, read-out: Cmax): 1890 ± 282 ng/g
- bioavailability ([2]; male, CD-1, mouse, oral 5 mg/kg, liver, read-out: F (apparent oral bioavailability)): 32 ± 2.86%
- AUC(0-inf) [2, 12]: 739 ± 6.75 ng·h/mL
- Tmax [2, 12]: 52.8 ± 7.8 min
- half-life [2, 12]: 984 ± 99.6 min
- Cmax ([2]; male, CD-1, mouse, oral 5 mg/kg, plasma, read-out: Cmax): 198 ± 11.5 ng/mL
- bioavailability ([2]; male, CD-1, mouse, oral 5 mg/kg, plasma, read-out: F (bioavailability)): 18 ± 2.43%
- AUC0-∞ ([2]; oral 5 mg/kg, kidney): 5223 ± 44.75 ng·h/g and 5223 ng·h/g
- AUC0-∞ ([2]; oral 5 mg/kg, liver): 6423 ± 571 ng·h/g and 6423 ng·h/g
- Ki (human CB2 receptors; CB2, full competition curves): 146 nM
Molecule: O=C1c2ccc(Cl)cc2N/C(=N/N=C/c2cc3ccccc3s2)[C@@H]2CCCN12 [Compound 4k]
- place preference (rewarding effect, abuse liability) (mice [1]): no significant rewarding effects; also recorded: no such preference
- tolerance under physiological pH [3]: better tolerance
- number writhes per 5 min (mice [4]; FIG. 3A, 4k 5 mg/kg versus vehicle): lower
- total frequency of writhes over the entire experiment (mice [4]; FIG. 3B, 30 min): lowest
- writhing over 30 minutes (mice [4]; oxycodone 3 mg/kg, compound 4k 5 mg/kg, versus vehicle): attenuate writhing; also recorded: significantly less writhing

Molecule: Cn1cc(/C=N/N=C2/Nc3ccccc3C(=O)N3CCC[C@@H]23)c2ccccc21 [Compound 4o]
- Displacement of [3H]CP-55,940 from CB1 (human CB1 receptors): 5.09%
- Displacement of [3H]CP-55,940 from CB2 (human CB2 receptors): 1.01%

Molecule: (S,E)-11-[(Benzo[b]thiophen-2-ylmethylene)hydrazono]-7-bromo-pyrrolo[2,1-c][1,4]Benzodiazepine [Compound 4i]
- Displacement of [3H]CP-55,940 from CB1 (human CB1 receptors): 49.82%
- Displacement of [3H]CP-55,940 from CB2 (human CB2 receptors): 36.39%

Molecule: (S,E)-11-[2-(Benzo[b]thiophenylmethylene)hydrazono]-pyrrolo[2,1-c][1,4]Benzodiazepine [Compound 4h]
- Displacement of [3H]CP-55,940 from CB1 (human CB1 receptors): 36.88%
- Displacement of [3H]CP-55,940 from CB2 (human CB2 receptors): 61.05%
